Experimental data as given in paper PMC12549899 (Nature Communications, 2025).
Changes are numbered by the printed parent chain. Several values for one entry are separate records, joined by “and”; a condition that tells them apart may be missing. Equal entries are not always repeated. Entries after “also recorded” stand apart in the source; their conditions may differ. Where two headings read alike, the source gives them in different places.

How the values were obtained:
DrOTOP1 = target: T1, DrOTOP1 (Danio rerio, UniProt Q7ZWK8); test: Whole-cell patch-clamp, inhibition of acid-evoked currents, WT DrOTOP1 expressed in HEK-293 cells; format: cell-based, zebrafish (Danio rerio); conditions: for Inhibition of pH 5.5-induced currents, screen 2 / Inhibition of pH 5.5-induced currents, screen 1: 200 µM compound; for Inhibition of pH 5.5-induced currents, screen 2 / inhibition at 200 µM / Inhibition of pH 5.5-induced currents, screen 1: HEK-293 cells expressing DrOTOP1, Vm -80 mV, values of single cells; for inhibition at 200 µM: HEK293, pH 5.5, 200 µM compound; for Inhibition of pH 5.5-induced currents, screen 1: 200 µM
T1 construct: A previously generated codon-optimized full-length DrOTOP1[8]; (UniProt: Q7ZWK8) construct; expressed in transfected cells; host or cells: HEK-293 (CRL-1573, ATCC)
T1 sequence (Q7ZWK8 1-586): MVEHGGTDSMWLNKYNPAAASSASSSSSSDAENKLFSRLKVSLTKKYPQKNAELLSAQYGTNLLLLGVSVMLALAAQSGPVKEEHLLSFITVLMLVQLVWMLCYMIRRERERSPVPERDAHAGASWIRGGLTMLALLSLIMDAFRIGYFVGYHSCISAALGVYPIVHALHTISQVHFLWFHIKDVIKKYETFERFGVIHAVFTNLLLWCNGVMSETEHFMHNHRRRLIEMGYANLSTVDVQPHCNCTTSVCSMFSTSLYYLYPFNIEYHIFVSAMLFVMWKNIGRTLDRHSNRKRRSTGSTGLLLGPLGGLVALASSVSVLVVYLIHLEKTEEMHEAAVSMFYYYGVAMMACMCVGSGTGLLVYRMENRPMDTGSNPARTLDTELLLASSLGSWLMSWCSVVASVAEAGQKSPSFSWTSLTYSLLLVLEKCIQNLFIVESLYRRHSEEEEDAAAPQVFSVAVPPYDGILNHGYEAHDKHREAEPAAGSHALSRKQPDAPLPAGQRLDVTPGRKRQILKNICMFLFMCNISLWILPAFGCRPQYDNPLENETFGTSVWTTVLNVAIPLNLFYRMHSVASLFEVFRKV
Source text: The 50 molecules identified were individually tested by whole-cell patch-clamp electrophysiology for effects on DrOTOP1 expressed in human embryonic kidney (HEK)−293 cells. […] This approach enabled us to observe the on- and off-responses of each compound. To quantify the effect of each compound, we compared the current magnitude during compound application immediately before wash-off, to the peak inward current following its removal (Supplementary Fig. 2A).
(§1) HEK-293 cells (CRL-1573, ATCC) were cultured in DMEM (Thermofisher 11995073) containing 10% fetal bovine serum (Life Technology 16000044) and Penicillin-Streptomycin (100 I.U./mL) and (100 µg/mL), respectively. Cells were transfected with WT DrOTOP1 or mutant DrOTOP1 channels in 35 mm petri dishes, with ~ 500 ng DNA and 2 μL TransIT-LT1 transfection reagent (Mirus Bio Corporation, Cat # MIR2300) following the manufacturer’s protocol. All constructs were subcloned into a pcDNA3.1 vector that adds an N-terminal fusion tag consisting of an octahistidine tag followed by eGFP, a Gly-Thr-Gly-Thr linker and a 3C protease cleavage site ([…]) followed by WT DrOTOP1, WT mOTOP1, WT hOTOP1, or mutated DrOTOP1. Point mutations were generated via In-Fusion Cloning (Takara) using single-stranded DNA primers generated through IDT and sequence confirmed by Sanger sequencing (GeneWiz).
(§2) Whole-cell patch-clamp recording was performed as previously described[6],[22],[25]. Recordings were made with an Axopatch 200B amplifier, digitized with a Digidata 1322a 16-bit data acquisition system, acquired with pClamp 8.2 and analyzed with Clampfit 10 (Molecular Devices). Recordings were sampled at 5 kHz and filtered at 1 kHz. Patch Pipettes with resistance of […] were fabricated from borosilicate glass, and only recordings with a giga-Ohm seal were used in analysis. Membrane potential was held at −80 mV for the duration of recordings. At the beginning of recordings and between, cells were washed with Tyrode’s solution (see below). Once a giga-Ohm seal was reached, cells were lifted and placed in front of microcapillary tubes controlled by a Fast-Step perfusion system (Warner Instruments) so that extracellular solutions could be rapidly exchanged during each experiment.
Standard Tyrode’s solution consisted of 145 mM NaCl, 5 mM KCl, MgCl2, 2 mM CaCl2, 20 mM D-Glucose, and 10 mM HEPES (for pH 7.4). All other extracellular patch-clamp solutions contained 160 mM NMDG-Cl, 2 mM CaCl2, and the following buffers: 10 mM HEPES (for pH 7.4), 10 mM MES (for pH 6.5-5.5), 10 mM CHES for pH 10, and 10 mM HomoPIPES for (pH 5.0). pH adjusted with HCl. […] The pipette contained intracellular solution made up of 120 mM Cs-aspartate, 15 mM CsCl, 2 mM Mg-ATP, 5 mM EGTA, 2.4 mM CaCl2 (100 nM free Ca^2+), and 10 mM HEPES with a pH of 7.3. All extracellular solution osmolarity was adjusted to 300 mOsm and intracellular osmolarity was adjusted to 290 mOsm.
All data are presented as mean ± SEM unless otherwise noted, and each data point represents an independent replicant. Inhibition of compounds was quantified as ((I2peak-I1)/(I2peak))*100, where I1 is the current immediately before wash-off and I2peak is the maximum recovered current (Supplementary Fig. 2). Hill coefficients were determined by the following equation: Y = Bmax*X^h/(Kd^h + X^h).

DrOTOP1 G130W = target: T2, DrOTOP1 G130W (Danio rerio, UniProt Q7ZWK8, G130W); test: Whole-cell patch-clamp, inhibition of acid-evoked currents, DrOTOP1 G130W (outer site); format: cell-based, zebrafish (Danio rerio); conditions: DrOTOP1 G130W
T2 construct: A previously generated codon-optimized full-length DrOTOP1[8]; (UniProt: Q7ZWK8) construct; expressed in transfected cells; host or cells: HEK-293 (CRL-1573, ATCC)
T2 sequence (Q7ZWK8 1-586 G130W): T1 sequence (Q7ZWK8 1-586) with G130W
Source text: To functionally test the significance of the two binding sites identified by cryo-EM, we generated point mutations of DrOTOP1 using the binding poses and conformational changes observed in DrOTOP1_C2.2 to guide our mutations. As per the binding pose that best fits our cryo-EM density, C2.2 forms the following interactions in the outer site: hydrophobic packing against many non-polar residues W126, G130, M133, L134, F271, F570, and M573, and π-stacking with W532 (Fig. 5A). In addition, C2.2 could potentially form H-bonds with E267, if the sidechain is protonated or a water bridge is present, and with H574 if it moves closer (Fig. 5A). Likewise, C2.36 presents a heterocyclic nitrogen that can potentially form a H-bond with E267, similarly, provided a protonation or water bridge is present (Fig. 5B). In addition, C2.36 forms a T-shaped π-stacking interaction with H574, whose sidechain has rotated 90 degrees (compared to DrOTOP1_apo), presumably to accommodate the interaction (Fig. 5B). Considering other inhibitors discovered from the second round of screening, many contain functional groups like the carbonyl groups of Group 1 molecules and the heterocyclic nitrogen atoms of Group 2 molecules (Supplementary Fig. 3E), that can potentially form similar H-bonds with E267 as C2.2 and C2.36, assuming the binding modes are similar. In the central site, C2.2 binds with the following interactions: hydrophobic packing with residues V201, F271, A274, V278, and A388, π-stacking with F277, and H-bonding with E384 (Fig. 5C).
Each non-aromatic residue was mutated to tryptophan, which was expected to cause steric occlusion. […] This seemed appropriate given the small number of H-bonds in these pockets, the ambiguity of how the inhibitors fit the density, and the prevalence of hydrophobic packing interactions (Fig. 5A–C).
as §1, §2
Standard Tyrode’s solution consisted of 145 mM NaCl, 5 mM KCl, MgCl2, 2 mM CaCl2, 20 mM D-Glucose, and 10 mM HEPES (for pH 7.4). All other extracellular patch-clamp solutions contained 160 mM NMDG-Cl, 2 mM CaCl2, and the following buffers: 10 mM HEPES (for pH 7.4), 10 mM MES (for pH 6.5-5.5), 10 mM CHES for pH 10, and 10 mM HomoPIPES for (pH 5.0). pH adjusted with HCl. […]

[1] = FDA 1-3 = FDA-approved drugs, read-out: Inhibition of pH 5.5-induced currents, screen 2

Oc1ccc(-c2nnc3n2Cc2ccccc2OC3)cc1 [C2.36]
Kinetics and reversibility of inhibition (DrOTOP1; WT DrOTOP1, pH 5.5 stimulus): uniquely slow off-rate; also recorded: slowly inhibited; also recorded: poorly reversible
Wash-off compared to WT (DrOTOP1 G130W): faster wash-off
Inhibition (Fig. 5N) (DrOTOP1 G130W; pH 5.5, 100 µM C2.36 according to legend of Fig. 5M, N, single cells): significantly less inhibition

Cc1nc(=NCCCc2ncc[nH]2)c2c([nH]1)COc1ccccc1C2 [C2.51]
Inhibition of pH 5.5-induced currents, screen 2 (DrOTOP1; FDA 1-3 = FDA-approved drugs, listed as 51, 200 µM): 16.6082% and 21.5548%
inhibition at 200 µM (DrOTOP1; [1]): 26.3%

Cc1csc(NC(=O)c2nc(C3CC3)n[nH]2)n1 [C38]
Inhibition of pH 5.5-induced currents, screen 1 (DrOTOP1): 0.5534% and 0.7746%
inhibition at 200 µM (DrOTOP1; read-out: Inhibition of pH 5.5-induced currents, screen 1): 0.922%

Cc1noc(-c2csc(Cc3ccccc3)n2)n1 [C39]
Inhibition of pH 5.5-induced currents, screen 1 (DrOTOP1): 1.199% and 1.966% and 0.3901%

COCc1nc(-c2nc3c([nH]2)CCCNC3=O)no1 [C42]
Inhibition of pH 5.5-induced currents, screen 1 (DrOTOP1): 1.242% and 3.465% and 1.504%

Cc1n[nH]c(CNC(=O)c2cnc3ccccc3n2)n1 [C44]
Inhibition of pH 5.5-induced currents, screen 1 (DrOTOP1): 3.035% and 1.397% and 1.665%

CC(=O)O[C@H]1Cc2ccccc2N(C(N)=O)c2ccccc21 [eslicarbazepine acetate, reference compound]
Inhibition of pH 5.5-induced currents, screen 2 (DrOTOP1; FDA 1-3 = FDA-approved drugs, listed as FDA 2, 200 µM): 4.01% and 3.687%
inhibition at 200 µM (DrOTOP1; [1]): 3.48%
